Reference: patent US20230190937A1, “IRON COMPLEXES OF ESTERIFIED DERIVATIVES OF NATURAL PRODUCTS, AND METHODS OF USE” (CORNELL UNIVERSITY, priority 2021, published 2023)

Procedure: Preparation of curcumin in coconut oil. To a round bottom flask with a magnetic stir bar, 20 mg of curcumin and 25 mL (23000 mg) of coconut oil were added. The flask was placed in a water bath at 40° C. and the mixture was stirred for 30 min. The sample was then cooled to room temperature and centrifuged to remove non-dissolved residue of curcumin.
(§1) The sample was then cooled to room temperature and used for the next studies.
as §1

solubility (concentration) in coconut oil: around 0.08 wt %
SMILES: COc1cc(/C=C/C(=O)CC(=O)/C=C/c2ccc(O)c(OC)c2)ccc1O [curcumin]
